Test results published in article PMC7699649 (Communications Biology, 2020).
“And” between values parts separate entries of the source, which are not always exact repeats. Equal values may be shown once. Non-standard residues stand in square brackets, D forms with d. Residues, ends and D or L forms follow the SMILES beside them.

Key:
[1] = tested on: human red blood cells; assay: Haemolysis assay; format: cell-based; conditions: human red blood cells in PBS, 1 h 37 °C, OD550, relative to 0.1% Triton-X-100
Procedure: Haemolysis was tested by incubating titrations of AMPs in PBS with freshly collected human red blood cells for 1 h at 37 °C. Control wells were treated with 0.1% Triton-X-100 to ensure complete lysis, or PBS-only to represent no lysis. Samples were spun down to remove non-lysed cells and the OD550 of the supernatant was measured using a Clariostar plate reader. The percentage of haemolysis was calculated as % haemolysis = (AP − AB)/(AC − AB) × 100, where AP is the absorbance value for a known peptide concentration, AC is the absorbance of the 0.1% Triton-X-100 control, AB is the absorbance of the PBS control. Data presented are averages and standard error from three biological replicate experiments.

[2] = tested on: EMRSA-15; assay: 1H HR-MAS NMR metabolomics of bacterial pellets; format: cell-based, Staphylococcus aureus; conditions: EMRSA-15 in MHB, sub-inhibitory challenge v unchallenged; fold change, 1H HR-MAS NMR of pellets
Procedure: S. aureus EMRSA-15 and P. aeruginosa RP73 were streaked on Mueller Hinton agar plates and RPMI (supplemented with 5% FBS) agar plates and incubated at 37 °C overnight or until single colonies formed. […] Cultures were incubated overnight at 37 °C without shaking and pelleted by centrifugation at 4 °C. The supernatant was removed and filtered separately for spent media analysis, the pellet was briefly washed three times with phosphate buffered saline (PBS). The pellets were frozen in liquid nitrogen and lyophilised overnight in an Alpha 1–2 LD plus freeze dryer (Martin Christ, Germany) and stored at −20 °C until required. Samples were transferred into HR-MAS inserts for use in 4 mm Bruker MAS rotor and resuspended in 30 μl of D2O containing 3-(Trimethylsilyl)propionic-2,2,3,3-D4 acid sodium salt (TMSP-2,2,3,3-D4). The removed supernatant was filtered through 0.2 μm filters and pH adjusted to within 0.3 pH units within the same sample set. The samples were supplemented with 10% D2O containing TMSP-2,2,3,3-D4 and loaded into 5.0 mm NMR tubes.
NMR spectra were collected at 600 MHz for ^1H on a Bruker Avance II spectrometer (Bruker Biospin, Coventry, UK) with a 4 mm HR-MAS probe at 310 K while spinning at 5 kHz. ^1H NMR spectra were acquired using a Carr-Purcell Meiboom-Gill pre-saturation (cpmgpr1d) pulse sequence with a spectrum width of 16.0 ppm and 9615 data points using 64 transients. Free induction decay was multiplied by an exponential function with 0.293 Hz line broadening. 2D ^1H–^1H correlation spectroscopy (COSY) and ^1H–^13C Heteronuclear Single Quantum Correlation (HSQC) experiments were performed on representative datasets using standard Bruker settings.
The spectra were Fourier transformed automatically using standard Bruker commands and manually phased and baseline corrected in Bruker TopSpin 4.0 (Bruker Biospin, Coventry, UK). Spectral pre-processing, cross-validation and multivariate analysis were carried out using the in-house programme developed by Dr Louic Vermeer and MVAPACK, an opensource Octave library for NMR metabolomic data processing and analysis. Pre-processing modifies NMR spectra and reduces the variances and influences which are not of interest and may interfere with data analysis, for example, residual water peak or noise and the TSP reference peak. Initially a principle component analysis was carried out to identify clustering spectra and potential outliers in the data, due to e.g. poor baseline. Data were then subject to probabilistic quotient normalisation before binning and alignment. Orthogonal Projections to Latent Structures Discriminant Analysis analyses were conducted to establish the quality of binary comparisons of the metabolomic data (Supplementary Table 4). […] The Mann–Whitney U test was used to compare means and associated p values were false discovery rate adjusted using the Benjamini-Hochberg method (α = 0.05). Box plots were generated using changes in normalised intensity for each metabolite and significant differences between challenges and controls were determined using a one-way ANOVA. Volcano plots and box plots were generated using in-house software developed for Jupyter Notepad using Python 3.7.0. Metabolites were assigned using the databanks: Chenomx NMR suite software (Chenomx Inc., Canada), Human Metabolome Database, BMRB, E. coli Metabolome Database and AOCS lipid library; and a comparison of chemical shifts to the literature, which was confirmed using 2D NMR spectra. Annotated spectra can be found in the supplementary materials (Supplementary Fig. 15). Metaboanalyst and KEGG were later used to identify key pathways that may be affected by these metabolites.

[3] = tested on: KC; assay: Murine EMRSA-15 lung infection model: BAL cytokine ELISA; format: in vivo, C57Bl6J mice; conditions: 600 mg/kg vancomycin or the two higher D-pleurocidin-KR doses (15, 1.5 mg/kg) i.v., 48 h
[4] = in words

## CC(C)C[C@@H](NC(=O)[C@@H](Cc1ccc(O)cc1)NC(=O)[C@@H](Cc1c[nH]cn1)NC(=O)[C@H](NC(=O)[C@@H](CC(C)C)NC(=O)[C@@H](C)NC(=O)[C@@H](C)NC(=O)[C@@H](CCCNC(=N)N)NC(=O)CNC(=O)[C@H](NC(=O)[C@@H](Cc1c[nH]cn1)NC(=O)[C@@H](CCCNC(=N)N)NC(=O)CNC(=O)[C@H](NC(=O)[C@@H](Cc1c[nH]cn1)NC(=O)[C@@H](C)NC(=O)[C@@H](C)NC(=O)[C@@H](CCCNC(=N)N)NC(=O)[C@@H](CCCNC(=N)N)NC(=O)[C@@H](Cc1ccccc1)NC(=O)[C@@H](Cc1ccccc1)NC(=O)[C@@H](CO)NC(=O)CNC(=O)[C@@H](Cc1c[nH]c2ccccc12)NC(=O)CN)C(C)C)C(C)C)[C@H](C)O)C(N)=O [D-pleurocidin-KR] (H-G[dW]G[dS][dF][dF][dR][dR][dA][dA][dH][dV]G[dR][dH][dV]G[dR][dA][dA][dL][dT][dH][dY][dL]-NH2; N-terminus assumed)
[1]
  haemolysis at the highest concentration tested 400 µg/ml: 50%
[1]; three biological replicates
  concentration at which 10% haemolysis is achieved: above 64 µg/ml and ~ 75 µg/ml
[2]
  fc 2-aminobutyrate: 0.991
  fc Acetate: 1.149
  fc Acetyl-Phosphocholine (1): 0.9923
  fc Acetyl-Phosphocholine (2): 1.003
  fc Adenosine: 1.125
  fc Alanine: 0.9478
  fc Aspartate: 0.8483
  fc Betaine: 0.9779
  fc Choline: 1.051
  fc Citrulline: 0.9363
  fc Glutamate: 0.896
  fc Glycerol (lipid headgroup) (1): 0.9028
  fc Glycerol (lipid headgroup) (2): 1.031
  fc Glycerol (lipid headgroup) (3): 0.9777
  fc Isoleucine: 1.148
  fc Lactate: 1.293
  fc Leucine: 1.172
  fc Lipid -CH=CH-: 1.134
  fc Lipid-CH₃: 1.116
  fc Lysine: 1.027
  fc N-acetyl-x (1): 0.8941
  fc N-acetyl-x (2): 1.036
  fc N-acetyl-x (3): 0.9489
  fc Proline: 1.056
  fc Succinate: 0.8785
  fc Unassigned 1.47ppm: 0.8868
  fc Unassigned 3.4802ppm: 0.9293
  fc Unassigned 8.55ppm: 0.9285
  fc Uracil: 1.738
  fc Valine: 1.029
  fc ᴅ-alanine (LTA): 1.157
[3]
  KC levels in BAL: fall to that of the uninfected group
[4]
  solubility in aqueous media: readily soluble
